# Paper PMC9293909 (Nature Communications, 2022)
# Where “and” joins values, the source holds several entries; their conditions need not be identical. Equal entries are not always repeated.
# Legend:
# [1] = system: postsynaptic A1Rs, CA1 pyramidal cells; assay: Whole-cell patch-clamp, membrane potential of CA1 pyramidal cells; assay type: cell-based, rat
# Experimental: (§1) Rats were kept on a 12-hour light-dark cycle with slices made 90 min after entering the light cycle. […] The brain was removed, cut down the midline and the two sides of the brain stuck down to a metal base plate using cyanoacrylate glue. […] Slices were stored at 34 °C for 1–6 h in aCSF (1 mM MgCl2, 2 mM CaCl2) before use.
# (§2) A slice was transferred to the recording chamber and perfused at 3 ml min^−1 with aCSF at 32 ± 0.5 °C. Slices were visualised using IR-DIC optics with an Olympus BX151W microscope (Scientifica) and a CCD camera (Hitachi). […] Voltage and current recordings were obtained using an Axon Multiclamp 700B amplifier (Molecular Devices, USA) and digitised at 20 KHz. Data acquisition and analysis was performed using pClamp 10 (Molecular Devices, USA). For voltage-clamp experiments, CA1 pyramidal cells were held at −60 mV. Peptides to interfere with G protein signalling were introduced via the patch pipette into the recorded cell.
# [2] = system: native presynaptic A1Rs, rat hippocampal slices; assay: Extracellular fEPSP recording, inhibition of excitatory synaptic transmission in hippocampal slices; assay type: cell-based
# Experimental: as §1
# A slice was transferred to the recording chamber, submerged in aCSF and perfused at 4–6 ml min^−1 (32 ± 0.5 °C). The slice was placed on a grid allowing perfusion above and below the tissue and all tubing was gastight (to prevent loss of oxygen). […] Field excitatory postsynaptic potentials (fEPSPs) were evoked with either an isolated pulse stimulator model 2100 (AM Systems, WA) or ISO-Flex (AMPI, Jerusalem, Israel). For fEPSPs a 10–20 min baseline was recorded at a stimulus intensity that gave 40-50% of the maximal response. […] For fEPSP slope, a 1 ms linear region after the fibre volley was measured. Extracellular recordings were made independently on two electrophysiology rigs.
# Statistical significance was tested as indicated in the text using paired or unpaired two-tailed t-tests or one-way or two-way ANOVAs with repeated measures (RM) as appropriate. Bonferroni corrections for multiple comparisons were performed. All in vitro cell signalling assay data was analysed using Prism 8.4 (Graphpad software, San Diego, CA), with all concentration-response curves being fitted using a 3 parameter logistic equation to calculate response range and IC50. All cAMP data was normalised to a forskolin concentration-response curve ran in parallel to each assay.
# [3] = Half-life determination in human plasma; conditions: UoBern01 at 1.00E-06 M
# Experimental: (§3) At the end of incubation at each of the time points (0, 0.5, 1, 1.5, 2 h), acetonitrile was added to the incubation mixture followed by centrifugation. Samples were analysed by HPLC-MS/MS and peak areas were recorded for each analyte. The area of precursor compound remaining after each of the time points relative to the amount remaining at time 0, expressed as a percentage, was calculated. Subsequently, the t1/2 is estimated from the slope of the initial linear range of the logarithmic curve of compound remaining (%) versus time, assuming first-order kinetics.
# [4] = in vitro; conditions: human, plasma
# Experimental: as §3
# [5] = Intrinsic clearance by human liver microsomes; conditions: UoBern01 at 1.00E-07 M
# [6] = Half-life determination in PBS; assay type: physicochemical; conditions: PBS, pH 7.4
# Experimental: […] Samples were analysed by HPLC-MS/MS and corresponding peak areas were recorded for each analyte. The ratio of precursor compound remaining after each time-point relative to the amount present at time 0, expressed as a percentage, is reported as chemical stability.
# [7] = system: motor coordination
# Experimental: On the day of the experiment, three baseline trials were recorded. The compound was administered IP (10 µg kg^−1, n = 6) or IV via tail vein injection (10 and 25 µg kg^−1, n = 6 per group). The control group received subcutaneous saline and the positive control group received subcutaneous morphine (15 mg kg^−1). Latency to fall (seconds) was measured in triplicate at 1, 2, 3 and 5 h post drug administration.
# [8] = system: CA1 pyramidal cells (Goa / Gob signalling); assay: Whole-cell voltage-clamp, adenosine-induced outward current with intracellular G protein interfering peptides; assay type: cell-based, rat; conditions: adenosine 10 µM, peptide 100 µM, held at −60 mV
# Experimental: as §2
# Drugs were made up as stock solutions (1-10 mM) and then diluted in aCSF or saline on the day of use. […] MRS1523 was purchased from Cayman Chemicals (Cambridge Bioscience Ltd., Cambridge UK). […] CA200645 and peptides for interfering with G protein signalling were obtained from Hello Bio (Bristol, UK) and were based on published sequences. […] The scrambled version was […]. […] Peptides were made up as stock solutions (2 mM) and stored at −20 °C. The stock solutions were dissolved in filtered intracellular solution just before use.
# [9] = incubation 0 minutes, UoBern01 at 1.00E-06 M
# [10] = incubation 60 minutes, UoBern01 at 1.00E-06 M
# [11] = incubation 120 minutes, UoBern01 at 1.00E-06 M
# [12] = incubation 180 minutes, 1.00E-06 M
# [13] = incubation 240 minutes, 1.00E-06 M
compound,measurement,setting,value
CNC(=O)[C@H]1O[C@@H](n2cnc3c(NCc4cccc(I)c4)nc(Cl)nc32)[C@H](O)[C@@H]1O [2-Cl-IB-MECA],effect on membrane potential,[1]; 1 µM,had no effect on membrane potential
"OC[C@H]1O[C@@H](n2cnc3c(N[C@@H]4CCC[C@H]4OCc4ccccc4)ncnc32)[C@H](O)[C@@H]1O [BnOCPA, (2 R,3 R,4 S,5 R)−2-(6-{[(1 R,2 R)−2-benzyloxycyclopentyl]amino}−9H-purin-9-yl)−5-(hydroxymethyl)oxolane-3,4-diol]",time constant of inhibition of synaptic transmission (single exponential),[2]; 300 nM,2.2 min
"CCNC(=O)[C@H]1O[C@@H](n2cnc3c(N)ncnc32)[C@H](O)[C@@H]1O [NECA, 5′-(N-Ethylcarboxamido) adenosine]",IC50,"[2]; fEPSP, rat hippocampal slices, read-out: IC50 inhibition of synaptic transmission",8.3 ± 3 nM
CCCOc1cc(N)ccc1C(=O)OCCN(CC)CC [Propoxycaine],2nd / Half-Life,[3],3.4 min
same,Mean / Half-Life,[3],4 min
same,1st / % Compound Remaining,[3]; incubation 0 minutes,100%
same,2nd / % Compound Remaining,[3]; incubation 0 minutes,100%
same,Mean / % Compound Remaining,[3]; incubation 0 minutes,100%
same,1st / % Compound Remaining,[3]; incubation 30 minutes,0.4%
same,2nd / % Compound Remaining,[3]; incubation 30 minutes,0.2%
same,Mean / % Compound Remaining,[3]; incubation 30 minutes,0.3%
same,1st / % Compound Remaining,[3]; incubation 60 minutes,0.3%
same,2nd / % Compound Remaining,[3]; incubation 60 minutes,0.2%
same,Mean / % Compound Remaining,[3]; incubation 60 minutes,0.3%
same,1st / % Compound Remaining,[3]; incubation 90 minutes,0.3%
same,2nd / % Compound Remaining,[3]; incubation 90 minutes,0.5%
same,Mean / % Compound Remaining,[3]; incubation 90 minutes,0.4%
same,1st / % Compound Remaining,[3]; incubation 120 minutes,0.1%
same,2nd / % Compound Remaining,[3]; incubation 120 minutes,0.3%
same,Mean / % Compound Remaining,[3]; incubation 120 minutes,0.2%
same,half-life,[4],3.8 min
OC[C@H]1O[C@@H](n2cnc3c(N[C@@H]4CCC[C@H]4OCc4ccccc4)ncnc32)[C@H](O)[C@@H]1O [UoBern01],Clint,[5],<115.5
same,Mean / Half-Life,[5],>60 min
same,1st / % Compound Remaining,[5]; incubation 0 minutes,100%
same,2nd / % Compound Remaining,[5]; incubation 0 minutes,100%
same,Mean / % Compound Remaining,[5]; incubation 0 minutes,100%
same,1st / % Compound Remaining,[5]; incubation 15 minutes,108.5%
same,2nd / % Compound Remaining,[5]; incubation 15 minutes,101.9%
same,Mean / % Compound Remaining,[5]; incubation 15 minutes,105.2%
same,1st / % Compound Remaining,[5]; incubation 30 minutes,92.9%
same,2nd / % Compound Remaining,[5]; incubation 30 minutes,86%
same,Mean / % Compound Remaining,[5]; incubation 30 minutes,89.4%
same,1st / % Compound Remaining,[5]; incubation 45 minutes,92%
same,2nd / % Compound Remaining,[5]; incubation 45 minutes,89.5%
same,Mean / % Compound Remaining,[5]; incubation 45 minutes,90.7%
same,1st / % Compound Remaining,[5]; incubation 60 minutes,84.1%
same,2nd / % Compound Remaining,[5]; incubation 60 minutes,69.7%
same,Mean / % Compound Remaining,[5]; incubation 60 minutes,76.9%
same,1st / Half-Life,[3],>120 min
same,2nd / Half-Life,[3],>120 min
same,Mean / Half-Life,[3],>120 min
same,1st / % Compound Remaining,[3]; incubation 0 minutes,100%
same,2nd / % Compound Remaining,[3]; incubation 0 minutes,100%
same,Mean / % Compound Remaining,[3]; incubation 0 minutes,100%
same,1st / % Compound Remaining,[3]; incubation 30 minutes,104.2%
same,2nd / % Compound Remaining,[3]; incubation 30 minutes,{224.0} %
same,Mean / % Compound Remaining,[3]; incubation 30 minutes,104.2%
same,1st / % Compound Remaining,[3]; incubation 60 minutes,124.2%
same,2nd / % Compound Remaining,[3]; incubation 60 minutes,99%
same,Mean / % Compound Remaining,[3]; incubation 60 minutes,111.6%
same,1st / % Compound Remaining,[3]; incubation 90 minutes,133.3%
same,2nd / % Compound Remaining,[3]; incubation 90 minutes,101.7%
same,Mean / % Compound Remaining,[3]; incubation 90 minutes,117.5%
same,1st / % Compound Remaining,[3]; incubation 120 minutes,{142.4} %
same,2nd / % Compound Remaining,[3]; incubation 120 minutes,108.4%
same,Mean / % Compound Remaining,[3]; incubation 120 minutes,108.4%
same,2nd / Half-Life,[6]; UoBern01 at 1.00E-06 M,>240 min
same,Mean / Half-Life,[6]; UoBern01 at 1.00E-06 M,>240 min
same,1st / % Compound Remaining,[6]; [9],100%
same,2nd / % Compound Remaining,[6]; [9],100%
same,Mean / % Compound Remaining,[6]; [9],100%
same,1st / % Compound Remaining,[6]; [10],100%
same,2nd / % Compound Remaining,[6]; [10],{204.3} %
same,Mean / % Compound Remaining,[6]; [10],100%
same,1st / % Compound Remaining,[6]; [11],99.8%
same,2nd / % Compound Remaining,[6]; [11],105.3%
same,Mean / % Compound Remaining,[6]; [11],102.5%
same,1st / % Compound Remaining,[6]; [12],96.7%
same,2nd / % Compound Remaining,[6]; [12],{108.7} %
same,Mean / % Compound Remaining,[6]; [12],96.7%
same,1st / % Compound Remaining,[6]; [13],89.5%
same,2nd / % Compound Remaining,[6]; [13],100.9%
same,Mean / % Compound Remaining,[6]; [13],95.2%
NCC(CC(=O)O)c1ccc(Cl)cc1 (centres unmarked) [baclofen],membrane hyperpolarisation,[1]; baclofen 10 µM in the presence of BnOCPA 300 nM,6.5 ± 0.43 mV
same,membrane hyperpolarisation,[1]; baclofen in control conditions,6.3 ± 0.76 mV
CN1CC[C@]23c4c5ccc(O)c4O[C@H]2[C@@H](O)C=C[C@H]3[C@H]1C5 [morphine],"Seconds on rota, 1h avg","[7]; Morphine, 1h post inj, avg of 3 trials per animal",12.0 s and 6.0 s and 5.0 s and 6.3 s and 10.7 s and 10.3 s
same,1h avg/ baseline,"[7]; Morphine, 1h post inj, per animal",0.218 and 0.137 and 0.1 and 0.2 and 0.164 and 0.0833
same,"Seconds on rota, 1h","[7]; Morphine, 1h post inj, single trials, individual animals",5 s and 14 s and 17 s and 9 s and 4 s and 2 s and 10 s and 8 s and 1 s and 12 s
same,"average of avg/baseline, 1hr post inj","[7]; Morphine, 1hr, group average",0.150
same,"Seconds on rota, 2h avg","[7]; Morphine, 2h post inj, avg of 3 trials per animal",34.0 s and 19.7 s and 12.3 s and 6.7 s and 21.7 s and 31.0 s
same,2h avg/ baseline,"[7]; Morphine, 2h post inj, per animal",0.6 and 0.45 and 0.259 and 0.2 and 0.333 and 0.25
same,"Seconds on rota, 2h","[7]; Morphine, 2h post inj, single trials, individual animals",30 Seconds and 27 Seconds and 45 Seconds and 7 Seconds and 18 Seconds and 34 Seconds and 2 Seconds and 17 Seconds and 8 Seconds and 6 Seconds (2×) and 24 Seconds and 22 Seconds and 19 Seconds and 26 Seconds
same,"average of avg/baseline, 2hr post inj","[7]; Morphine, 2hr, group average",0.352
same,"Seconds on rota, 3h avg","[7]; Morphine, 3h post inj, avg of 3 trials per animal",46.3 s and 37.7 s and 34.0 s and 18.7 s and 55.0 s
same,3h avg/ baseline,"[7]; Morphine, 3h post inj, per animal",0.842 and 0.9 and 0.7 and 0.566 and 0.444
same,"Seconds on rota, 3h","[7]; Morphine, 3h post inj, single trials, individual animals",39 s and 41 s and 59 s and 27 s and 29 s and 57 s and 21 s and 54 s and 11 s and 23 s and 22 s and 26 s and 65 s
same,"average of avg/baseline, 3hr post inj","[7]; Morphine, 3hr, group average",0.690
same,"Seconds on rota, 5h avg","[7]; Morphine, 5h post inj, avg of 3 trials per animal",48.7 s and 52.3 s and 48.0 s and 81.7 s and 84.3 s
same,5h avg/ baseline,"[7]; Morphine, 5h post inj, per animal",0.9 and 1.1 and 1.5 and 1.3 and 0.7
same,"Seconds on rota, 5h","[7]; Morphine, 5h post inj, single trials, individual animals",24 s and 57 s and 65 s and 31 s and 60 s and 55 s and 19 s and 73 s and 38 s and 51 s and 67 s and 81 s and 97 s and 88 s and 100 s
same,"average of avg/baseline, 5hr post inj","[7]; Morphine, 5hr, group average",1.081
same,rotarod performance,[7]; morphine 15 mg kg^−1 SC,caused sedation and motor impairment
"LNRGNAYLCIGMG [Goa SCR, scrambled version of the Goa interfering peptide]",adenosine-induced outward current with intracellular peptide,[8],45.8 pA and 40.3 pA and 52.5 pA and 32 pA and 47 pA and 43.9 pA and 42 pA
same,adenosine-induced outward current with intracellular peptide,[8]; listed as scrambled Goa peptide,43.4 ± 2.4 pA
same,adenosine-induced outward current with intracellular peptide,[8]; mean,43.36 pA
